# Laboratory results reported in ChEMBL document CHEMBL1201862, “PubChem BioAssay data set” (2004).
# The source made the active and inactive calls.
# Columns and labels:
# [1] = molecular target: Nucleotide-binding oligomerization domain-containing protein 2 (Homo sapiens, UniProt Q9HC29); test: inhibition of NOD2-driven NF-kB reporter – cell-based, luminescence, uHTS, HEK293 (AID 1566); format: functional
# X-box-binding protein 1 = molecular target: T1, X-box-binding protein 1 (Homo sapiens, UniProt P17861); format: functional, Cricetulus griseus;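 further: confirmatory dose-response counter-screen serving a CHOP assay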
# T1 sequence (P17861 whole entry): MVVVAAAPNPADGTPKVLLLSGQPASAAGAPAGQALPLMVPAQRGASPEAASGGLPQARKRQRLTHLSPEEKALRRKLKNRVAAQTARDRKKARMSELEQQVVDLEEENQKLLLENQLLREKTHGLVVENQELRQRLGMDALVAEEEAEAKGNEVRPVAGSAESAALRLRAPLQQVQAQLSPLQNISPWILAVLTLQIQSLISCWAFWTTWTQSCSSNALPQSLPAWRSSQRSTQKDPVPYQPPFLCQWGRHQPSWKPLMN
# HEK293 [2] = test: cells; format: functional, cell-based; conditions: Homo sapiens
# [3] = molecular target: T2, Nucleotide-binding oligomerization domain-containing protein 1 (Homo sapiens, UniProt Q9Y239); test: blockers of NOD1 pathway activity – revised, SAR follow-up (AID 2333); format: functional
# T2 sequence (Q9Y239 whole entry): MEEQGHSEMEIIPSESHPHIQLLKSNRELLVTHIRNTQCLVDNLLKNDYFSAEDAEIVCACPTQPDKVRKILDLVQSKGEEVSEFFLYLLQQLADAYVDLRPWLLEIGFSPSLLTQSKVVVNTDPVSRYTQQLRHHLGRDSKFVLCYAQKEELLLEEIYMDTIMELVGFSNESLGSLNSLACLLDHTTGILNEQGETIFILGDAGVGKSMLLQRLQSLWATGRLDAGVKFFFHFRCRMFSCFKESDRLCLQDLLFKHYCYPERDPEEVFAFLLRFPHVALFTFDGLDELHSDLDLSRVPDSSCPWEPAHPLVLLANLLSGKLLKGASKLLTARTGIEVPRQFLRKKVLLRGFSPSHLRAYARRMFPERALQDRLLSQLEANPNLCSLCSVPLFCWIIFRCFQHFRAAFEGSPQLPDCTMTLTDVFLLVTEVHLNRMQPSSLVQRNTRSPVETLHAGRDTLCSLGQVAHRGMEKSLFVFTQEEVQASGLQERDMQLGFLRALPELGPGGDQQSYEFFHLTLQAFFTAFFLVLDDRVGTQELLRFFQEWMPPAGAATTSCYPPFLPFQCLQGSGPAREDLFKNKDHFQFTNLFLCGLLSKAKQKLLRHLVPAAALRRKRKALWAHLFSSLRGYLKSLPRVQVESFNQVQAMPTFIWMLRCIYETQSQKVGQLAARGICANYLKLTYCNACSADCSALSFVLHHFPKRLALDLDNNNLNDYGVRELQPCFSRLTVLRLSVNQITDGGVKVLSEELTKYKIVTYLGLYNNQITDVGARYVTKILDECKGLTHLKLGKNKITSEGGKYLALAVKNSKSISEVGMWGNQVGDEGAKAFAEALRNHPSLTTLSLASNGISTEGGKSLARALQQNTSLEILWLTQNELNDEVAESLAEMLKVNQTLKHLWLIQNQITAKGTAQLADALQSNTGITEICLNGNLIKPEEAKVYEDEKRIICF
# HEK293 [4] = test: NOD2 signaling inhibitors in MDP-stimulated cells, cell-based, uHTS, luminescence (AID 2001); format: functional; conditions: Homo sapiens
# HEK293 [5] = test: cells; format: functional, cell-based; conditions: Homo sapiens; remark: listed apart in the source
# HEK293 [6] = test: cells; format: functional, cell-based; conditions: Homo sapiens; remark: listed apart in the source
# Tumor necrosis factor = Tumor necrosis factor (Homo sapiens, UniProt P01375); test: analog potency on TNFa NF-kB signaling – cell-based, revised, SAR follow-up (AID 2337); format: functional
# HEK293 [7] = test: cells; conditions: Homo sapiens
# HEK293 [8] = test: inhibition of NOD1-driven NF-kB reporter – cell-based, luminescence, uHTS, primary screen (AID 1578); format: functional; conditions: Homo sapiens
# Albumin = Albumin (Bos taurus, UniProt P02769); test: Counterscreen for inhibitors of T-cell receptor (TCR)-CD3 interaction: Fluorescence-based biochemical high throughput dose response assay to identify inhibitors of T-cell receptor (TCR)-CD3 interaction using a TAMRA-labeled BSA probe.; format: functional
# [9] = molecular target: T3, Intestinal-type alkaline phosphatase (Homo sapiens, UniProt P09923); test: activation of human intestinal alkaline phosphatase – biochemical, luminescent, uHTS hits, set 2, dose response (AID 488817); format: functional;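 further: potency of activators that raise enzyme activity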
# [10] = tested on: Streptococcus sp. 'group A'; test: Streptococcus pyogenes SK(-)GAS viability under kanamycin – luminescence, BacTiterGlo, confirmation, counter-screen for streptokinase expression inhibitor project, dose response (AID 1900); format: functional, organism-based
# [11] = molecular target: T4, Heat shock factor protein 1 (Mus musculus, UniProt P38532); test: decrease of HSF1-responsive luciferase luminescence – cell-based, NIH3T3, dose retest, confirmation (AID 2382); format: functional;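 further: NIH3T3 fibroblasts with HSF1-driven luciferase reporter stressed by proteasome inhibitor MG132; luminescence from HSF1-driven luciferase expression after 8 hours of MG132 stress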
# T4 sequence (P38532 whole entry): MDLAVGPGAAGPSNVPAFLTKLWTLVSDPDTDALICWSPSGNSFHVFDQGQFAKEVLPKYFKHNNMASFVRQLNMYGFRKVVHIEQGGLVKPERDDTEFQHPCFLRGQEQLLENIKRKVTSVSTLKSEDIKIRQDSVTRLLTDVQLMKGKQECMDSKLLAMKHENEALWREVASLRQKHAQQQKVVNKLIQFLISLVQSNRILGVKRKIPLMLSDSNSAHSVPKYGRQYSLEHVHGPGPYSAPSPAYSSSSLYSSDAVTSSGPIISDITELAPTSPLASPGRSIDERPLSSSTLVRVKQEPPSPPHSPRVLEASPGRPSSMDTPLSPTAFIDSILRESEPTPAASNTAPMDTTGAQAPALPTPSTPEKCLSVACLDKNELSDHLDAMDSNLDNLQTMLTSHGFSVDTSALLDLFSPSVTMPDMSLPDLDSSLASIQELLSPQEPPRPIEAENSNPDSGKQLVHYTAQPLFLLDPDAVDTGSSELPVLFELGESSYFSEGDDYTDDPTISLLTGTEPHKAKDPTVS
# [12] = molecular target: T3, Intestinal-type alkaline phosphatase; test: human intestinal alkaline phosphatase activators, dose response, biochemical, luminescence, uHTS hits (AID 463120); format: functional
# [13] = molecular target: Intestinal-type alkaline phosphatase (Mus musculus, UniProt P24822); test: PubChem AID 488874; format: functional
# Streptococcus = test: GAS UMAA2166 growth inhibition – luminescence, BacTiterGlo, counter-screen for streptokinase expression inhibitor project, dose response (AID 1915); format: functional, organism-based;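 further: potency for reduction of bacterial viability or growth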
# Nonstructural protein 1 = Nonstructural protein 1 (Influenza A virus, UniProt Q194T2); format: functional, Influenza A virus (A/California/07/2009(H1N1))
# [14] = molecular target: T5, Alkaline phosphatase, tissue-nonspecific isozyme (Homo sapiens, UniProt P05186); test: activation of tissue-nonspecific alkaline phosphatase – biochemical, TNAP isozyme, human IAP uHTS hits, selectivity assay for human IAP activator project, dose response (AID 488886); format: functional;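 further: potency of compounds raising TNAP activity as a selectivity check on IAP activators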
# T5 sequence (P05186 whole entry): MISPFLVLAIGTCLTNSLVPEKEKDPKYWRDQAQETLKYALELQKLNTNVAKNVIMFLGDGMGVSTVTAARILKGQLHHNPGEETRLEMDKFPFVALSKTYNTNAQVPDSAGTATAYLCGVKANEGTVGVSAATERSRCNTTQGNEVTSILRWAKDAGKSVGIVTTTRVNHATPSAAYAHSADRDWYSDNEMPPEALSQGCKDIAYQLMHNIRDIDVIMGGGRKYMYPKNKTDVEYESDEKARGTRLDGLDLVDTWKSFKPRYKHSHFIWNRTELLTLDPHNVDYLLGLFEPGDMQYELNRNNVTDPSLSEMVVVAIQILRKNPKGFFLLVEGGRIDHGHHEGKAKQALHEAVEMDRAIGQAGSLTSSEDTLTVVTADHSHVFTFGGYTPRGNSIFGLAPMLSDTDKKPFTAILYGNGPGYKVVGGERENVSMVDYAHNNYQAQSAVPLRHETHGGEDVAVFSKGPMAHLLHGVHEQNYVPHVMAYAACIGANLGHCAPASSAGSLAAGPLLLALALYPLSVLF
# [15] = microbe, parasite or virus in culture; format: functional; conditions: Mycobacterium tuberculosis
# [16] = Luminescence Cell-Based Dose Confirmation HTS to Identify Activators of 5'UTR Stem-Loop Driven Alpha-Synuclein mRNA Translation in H4 Neuroglioblastoma Cells. [Related pubchem assays: 1829 (Project Summary), 1814 (Primary HTS)]; format: functional
# [17] = decrease of insulin promoter-GFP reporter – imaging, high-content screening, mouse beta cells (AID 1628); format: functional; conditions: MIN6
# [18] = viability of uninfected HEp-2 cells – cell-based, HTS, cytotoxicity control for RSV inhibitor project, dose response (AID 2410); format: functional; conditions: human respiratory syncytial virus
# [19] = inhibition of ADAM10 peptide cleavage – biochemical, FRET peptide substrate, recombinant human ADAM10, selectivity assay for ADAM17 exosite inhibitor project, dose response (AID 743259);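 further: ADAM10 enzyme cleaving a FRET peptide substrate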
# INS1 = test: INS-1E survival protection against cytokine death – cell-based, luminescence, retest, dose response (AID 449756); format: functional; conditions: Rattus norvegicus;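 further: cell death triggered by IL-1 beta plus TNF-alpha plus IFN-gamma mixture; protective hits raise ATP signal compared with cytokine alone wells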
# [20] = molecular target: Disintegrin and metalloproteinase domain-containing protein 17 (Homo sapiens, UniProt P78536); test: exosite inhibitors of ADAM17, dose response, biochemical (AID 743260)
# [21] = Luminescence Cell-Based Dose Response HTS to Identify Activators of Luciferase Translation or Activity in H4 […] Cells. [Related pubchem assays: 1829 (Project Summary), 1814 (Primary HTS)]; format: functional
# [22] = MIN6 cell viability loss – mouse insulinoma, cytotoxicity control, dose response (AID 2122); format: functional;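 further: confirmatory high-throughput counterscreen run to flag cytotoxic compounds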
# H4 = test: Luminescence Cell-Based Dose Response HTS to Identify Activators of 5'UTR Stem-Loop Driven Prion Protein mRNA Translation in H4 Neuroglioblastoma Cells. [Related pubchem assays: 1829 (Project Summary), 1814 (Primary HTS)]; format: functional; conditions: Homo sapiens
# [23] = molecular target: T5, Alkaline phosphatase, tissue-nonspecific isozyme; test: inhibition of tissue-nonspecific alkaline phosphatase – biochemical, dose response (AID 488882); format: functional
# [24] = molecular target: Induced myeloid leukemia cell differentiation protein Mcl-1 (Homo sapiens, UniProt Q07820); format: functional
# [25] = molecular target: T6, Rac GTPase-activating protein 1 (Homo sapiens, UniProt Q9H0H5); test: blockers of MgcRacGAP-driven Rac1 GTP hydrolysis – biochemical, ADP Hunter fluorescence, primary and confirmatory, confirmation (AID 624330); format: functional
# T6 sequence (Q9H0H5 whole entry): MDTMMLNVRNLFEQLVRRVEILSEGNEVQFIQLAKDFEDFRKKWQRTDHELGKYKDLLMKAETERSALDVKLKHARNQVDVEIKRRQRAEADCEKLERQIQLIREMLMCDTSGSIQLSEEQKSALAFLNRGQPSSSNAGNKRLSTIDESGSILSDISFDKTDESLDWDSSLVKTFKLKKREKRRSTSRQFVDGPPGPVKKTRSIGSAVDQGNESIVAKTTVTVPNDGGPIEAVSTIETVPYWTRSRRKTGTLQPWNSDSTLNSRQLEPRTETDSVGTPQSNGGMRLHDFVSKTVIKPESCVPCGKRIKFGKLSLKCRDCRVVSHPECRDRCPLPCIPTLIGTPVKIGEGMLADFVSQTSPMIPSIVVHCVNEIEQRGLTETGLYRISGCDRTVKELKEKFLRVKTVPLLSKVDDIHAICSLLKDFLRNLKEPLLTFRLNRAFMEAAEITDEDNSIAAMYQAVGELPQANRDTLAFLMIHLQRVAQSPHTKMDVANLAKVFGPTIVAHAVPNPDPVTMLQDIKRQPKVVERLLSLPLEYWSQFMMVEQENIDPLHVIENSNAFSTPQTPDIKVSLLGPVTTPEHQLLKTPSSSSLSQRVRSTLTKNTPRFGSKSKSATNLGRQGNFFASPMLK
# [26] = viability loss in HeLa cells – cytotoxicity control for MgcRacGAP inhibitor project, dose response (AID 624300); format: functional
# T3 sequence (P09923 whole entry): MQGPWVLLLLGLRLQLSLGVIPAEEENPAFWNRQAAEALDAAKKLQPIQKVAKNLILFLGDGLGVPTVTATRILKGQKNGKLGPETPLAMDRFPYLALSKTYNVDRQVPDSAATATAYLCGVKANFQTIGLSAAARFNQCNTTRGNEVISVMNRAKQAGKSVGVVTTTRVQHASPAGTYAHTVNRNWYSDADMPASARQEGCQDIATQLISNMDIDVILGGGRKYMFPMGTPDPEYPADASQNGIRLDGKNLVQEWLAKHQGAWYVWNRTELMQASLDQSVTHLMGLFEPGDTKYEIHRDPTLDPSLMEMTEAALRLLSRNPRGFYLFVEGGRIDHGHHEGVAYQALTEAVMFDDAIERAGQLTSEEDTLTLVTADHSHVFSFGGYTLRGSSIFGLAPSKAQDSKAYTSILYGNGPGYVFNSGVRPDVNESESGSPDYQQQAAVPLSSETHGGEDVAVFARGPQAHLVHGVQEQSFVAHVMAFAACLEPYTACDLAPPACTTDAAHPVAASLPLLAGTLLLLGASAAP
# Nonstructural protein 1, sequence (Q194T2 whole entry): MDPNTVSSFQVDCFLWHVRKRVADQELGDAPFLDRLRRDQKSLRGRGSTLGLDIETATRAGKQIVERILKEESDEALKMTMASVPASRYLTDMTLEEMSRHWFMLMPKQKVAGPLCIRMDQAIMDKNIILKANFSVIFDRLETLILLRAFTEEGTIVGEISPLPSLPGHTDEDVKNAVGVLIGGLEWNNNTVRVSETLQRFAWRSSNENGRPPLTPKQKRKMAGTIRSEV
# Intestinal-type alkaline phosphatase (Mus musculus, UniProt P24822), sequence (P24822 whole entry): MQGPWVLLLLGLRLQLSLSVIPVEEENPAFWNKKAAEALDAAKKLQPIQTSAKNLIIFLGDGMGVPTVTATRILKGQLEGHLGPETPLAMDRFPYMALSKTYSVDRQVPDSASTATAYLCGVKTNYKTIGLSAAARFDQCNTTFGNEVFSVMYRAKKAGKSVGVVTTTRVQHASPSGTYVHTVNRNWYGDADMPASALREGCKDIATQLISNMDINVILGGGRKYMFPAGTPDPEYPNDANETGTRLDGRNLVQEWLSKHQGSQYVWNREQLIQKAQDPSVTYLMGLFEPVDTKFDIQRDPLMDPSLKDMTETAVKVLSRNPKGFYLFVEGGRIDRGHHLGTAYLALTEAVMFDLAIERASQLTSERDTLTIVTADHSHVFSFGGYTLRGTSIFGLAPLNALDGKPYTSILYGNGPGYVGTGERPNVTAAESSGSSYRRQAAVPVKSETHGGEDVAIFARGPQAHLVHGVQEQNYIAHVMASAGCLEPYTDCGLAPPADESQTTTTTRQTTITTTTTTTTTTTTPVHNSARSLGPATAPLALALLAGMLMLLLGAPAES
# Tumor necrosis factor, sequence (P01375 whole entry): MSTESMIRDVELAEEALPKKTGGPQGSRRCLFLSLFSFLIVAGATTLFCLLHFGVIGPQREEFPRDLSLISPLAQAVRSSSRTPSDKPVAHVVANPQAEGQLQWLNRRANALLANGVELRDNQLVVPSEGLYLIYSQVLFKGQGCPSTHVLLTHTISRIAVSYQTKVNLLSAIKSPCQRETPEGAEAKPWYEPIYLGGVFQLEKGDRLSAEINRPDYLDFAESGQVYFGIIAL
# Nucleotide-binding oligomerization domain-containing protein 2, sequence (Q9HC29 whole entry, the tested form may be a part): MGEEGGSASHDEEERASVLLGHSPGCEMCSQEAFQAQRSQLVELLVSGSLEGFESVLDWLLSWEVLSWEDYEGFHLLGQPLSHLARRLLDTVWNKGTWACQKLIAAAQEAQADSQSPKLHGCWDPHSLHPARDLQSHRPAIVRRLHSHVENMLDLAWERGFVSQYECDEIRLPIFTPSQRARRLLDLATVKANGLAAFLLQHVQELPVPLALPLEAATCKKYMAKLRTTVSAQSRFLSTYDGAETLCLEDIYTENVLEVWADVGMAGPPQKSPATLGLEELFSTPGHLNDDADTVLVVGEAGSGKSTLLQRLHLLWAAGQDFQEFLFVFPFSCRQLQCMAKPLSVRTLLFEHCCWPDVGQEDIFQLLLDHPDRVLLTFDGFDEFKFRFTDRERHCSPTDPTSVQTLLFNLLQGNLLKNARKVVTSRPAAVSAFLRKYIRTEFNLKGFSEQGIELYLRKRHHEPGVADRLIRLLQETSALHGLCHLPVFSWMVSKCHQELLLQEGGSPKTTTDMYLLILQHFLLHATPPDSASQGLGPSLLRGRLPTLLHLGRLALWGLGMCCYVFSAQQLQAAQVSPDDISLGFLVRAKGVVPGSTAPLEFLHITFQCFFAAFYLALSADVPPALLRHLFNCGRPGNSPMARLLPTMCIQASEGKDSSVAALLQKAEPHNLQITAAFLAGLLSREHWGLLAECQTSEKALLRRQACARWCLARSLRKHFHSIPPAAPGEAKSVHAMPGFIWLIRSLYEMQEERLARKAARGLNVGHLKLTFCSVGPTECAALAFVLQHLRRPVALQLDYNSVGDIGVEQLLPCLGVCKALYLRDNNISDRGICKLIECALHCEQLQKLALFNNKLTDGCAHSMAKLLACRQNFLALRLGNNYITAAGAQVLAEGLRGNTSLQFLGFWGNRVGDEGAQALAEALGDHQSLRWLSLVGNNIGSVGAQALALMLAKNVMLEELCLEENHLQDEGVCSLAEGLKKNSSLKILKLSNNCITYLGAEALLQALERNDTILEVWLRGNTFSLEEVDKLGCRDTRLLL
# Disintegrin and metalloproteinase domain-containing protein 17, sequence (P78536 whole entry, the tested form may be a part): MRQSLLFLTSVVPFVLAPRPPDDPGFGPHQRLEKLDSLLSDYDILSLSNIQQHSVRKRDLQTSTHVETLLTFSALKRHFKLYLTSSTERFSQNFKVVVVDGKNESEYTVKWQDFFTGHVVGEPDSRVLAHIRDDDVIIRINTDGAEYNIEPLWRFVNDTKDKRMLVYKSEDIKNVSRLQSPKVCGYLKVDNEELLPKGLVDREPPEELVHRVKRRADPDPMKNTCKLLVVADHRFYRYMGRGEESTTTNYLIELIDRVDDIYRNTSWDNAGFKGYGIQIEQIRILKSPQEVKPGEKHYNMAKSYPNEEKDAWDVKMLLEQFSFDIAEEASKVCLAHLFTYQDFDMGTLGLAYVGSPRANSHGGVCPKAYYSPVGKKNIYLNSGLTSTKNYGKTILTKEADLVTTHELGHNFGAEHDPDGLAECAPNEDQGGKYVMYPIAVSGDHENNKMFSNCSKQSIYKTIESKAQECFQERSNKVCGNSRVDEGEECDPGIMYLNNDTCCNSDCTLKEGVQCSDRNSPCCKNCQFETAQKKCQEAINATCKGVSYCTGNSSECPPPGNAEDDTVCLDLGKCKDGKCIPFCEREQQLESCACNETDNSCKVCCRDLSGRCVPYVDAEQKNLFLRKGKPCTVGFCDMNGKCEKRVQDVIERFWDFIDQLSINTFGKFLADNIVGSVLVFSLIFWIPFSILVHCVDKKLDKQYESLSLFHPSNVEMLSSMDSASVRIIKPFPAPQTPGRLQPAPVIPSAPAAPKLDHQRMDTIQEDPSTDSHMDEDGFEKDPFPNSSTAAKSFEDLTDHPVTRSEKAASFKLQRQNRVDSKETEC
# Induced myeloid leukemia cell differentiation protein Mcl-1, sequence (Q07820 whole entry): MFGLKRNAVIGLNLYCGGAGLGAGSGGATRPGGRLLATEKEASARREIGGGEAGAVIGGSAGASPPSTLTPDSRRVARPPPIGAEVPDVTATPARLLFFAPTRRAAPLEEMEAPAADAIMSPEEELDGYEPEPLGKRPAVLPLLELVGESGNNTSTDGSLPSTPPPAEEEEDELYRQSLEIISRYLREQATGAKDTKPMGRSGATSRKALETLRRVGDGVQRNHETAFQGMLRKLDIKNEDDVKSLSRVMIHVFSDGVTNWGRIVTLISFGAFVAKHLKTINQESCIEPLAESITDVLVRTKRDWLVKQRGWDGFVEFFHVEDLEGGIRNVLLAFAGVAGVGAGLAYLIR
# Albumin, sequence (P02769 whole entry): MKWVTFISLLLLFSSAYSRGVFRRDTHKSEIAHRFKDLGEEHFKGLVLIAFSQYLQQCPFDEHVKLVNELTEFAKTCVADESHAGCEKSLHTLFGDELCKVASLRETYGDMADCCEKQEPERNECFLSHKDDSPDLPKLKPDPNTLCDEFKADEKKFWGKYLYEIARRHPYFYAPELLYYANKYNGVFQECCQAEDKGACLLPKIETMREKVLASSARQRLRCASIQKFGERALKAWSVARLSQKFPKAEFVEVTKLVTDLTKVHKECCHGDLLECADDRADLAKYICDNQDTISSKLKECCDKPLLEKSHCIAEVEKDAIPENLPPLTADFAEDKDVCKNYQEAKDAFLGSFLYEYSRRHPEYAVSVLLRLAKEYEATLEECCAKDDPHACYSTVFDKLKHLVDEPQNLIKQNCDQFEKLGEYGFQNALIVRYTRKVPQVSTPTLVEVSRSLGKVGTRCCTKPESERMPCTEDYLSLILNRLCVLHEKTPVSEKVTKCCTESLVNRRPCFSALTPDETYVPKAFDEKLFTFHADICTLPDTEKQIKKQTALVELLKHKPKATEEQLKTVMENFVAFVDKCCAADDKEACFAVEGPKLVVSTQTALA
structure (smiles),measurement,setting,value
CCCCn1c(=O)c(C(=O)Nc2cnccn2)c(O)c2ccccc21,EC50,[1],1.72 µM (active)
same,Absolute IC50 (XBP1),X-box-binding protein 1,10 µM
same,IC50,HEK293 [2],> 20 µM (inactive)
same,IC50,[3],7.68 µM (active)
same,IC50,HEK293 [4],7.07 µM (active)
same,IC50,HEK293 [5],> 20 µM (inactive)
same,IC50,HEK293 [6],> 20 µM (inactive)
same,IC50,Tumor necrosis factor,4.92 µM (active)
same,IC50,HEK293 [7],> 20 µM (inactive)
same,EC50,HEK293 [8],3.1 µM (active)
CCOC(=O)c1c(C)[nH]c(C(=O)N/N=C/c2cc([N+](=O)[O-])ccc2O)c1C,IC50,Albumin,> 94.1 µM (inactive)
same,EC50,[9],11.4 µM (active)
same,EC50,[10],2.33 µM (active)
same,EC50,[11],860 nM (active)
same,EC50,[12],12.1 µM (active)
same,IC50,[13],> 100 µM (inactive)
same,EC50,Streptococcus,2.97 µM (active)
same,IC50,Nonstructural protein 1,44 µM (active)
same,EC50,[14],22.3 µM (active)
O=C(Nc1nc2ccc(F)cc2s1)C1CCN(S(=O)(=O)c2cc([N+](=O)[O-])ccc2Cl)CC1,CC50,[15],20.2 µM (active)
same,EC50,[16],14.7 µM (active)
same,IC50,[17],2.34 µM (active)
same,CC50,[18],12 µM (active)
same,IC50,[19],> 7.72 µM (active)
same,AC50,INS1,8.24 µM (active)
same,IC50,[20],> 69.5 µM (inactive)
same,EC50,[21],25.8 µM (active)
same,IC50,[22],2.37 µM (active)
same,EC50,H4,4.7 µM (active)
CC1C(=O)NN=C1C(=O)N/N=C\c1ccc(O)cc1O (configuration not stated),IC50,[23],7.32 µM (active)
same,IC50,[24],7.72 µM (active)
same,EC50,[9],11.3 µM (active)
same,EC50,[12],8.3 µM (active)
same,IC50,[25],45.4 µM (active)
same,IC50,[13],> 100 µM (inactive)
same,IC50,Nonstructural protein 1,15.9 µM (active)
same,CC50,[26],100 µM (active)
